In patent US12195437B2, “Lipophenolic flavonoid derivatives useful to reduce carbonyl and oxidative stresses (COS)” (Centre National de la Recherche Scientifique (CNRS), priority 2018, dated 2025):

Legend:
Format in all cases: cell-based
[1] = system: ARPE-19 cells; experiment: Protection of lipophenols against all-trans-retinal toxicity (anti-carbonyl stress activity, MTT); settings: trans-retinal 15 μM; for cell survival gain (anti-carbonyl stress activity): compared to stressed untreated cells; for anti-carbonyl stress activity (in words): up to 80 μM lipophenol
Description: (§1) ARPE-19 cells (cells from the retinal pigment epithelium) were obtained from ATCC, and were grown following the instructions in Dulbecco's Modified Eagle's Medium (DMEM)/Ham F12 (GIBCO) containing 10% v/v fetal bovine serum (FBS) and 1% v/v penicillin/streptomycin under a humidified air (95%)/CO2 (5%) atmosphere at 37° C. For experimental cell seeding and sub-culturing, cells were dissociated with 0.25% trypsin-EDTA, re-suspended in the culture medium and then plated at 1-3×10^5 cells/mL.
(§2) Cell viability was determined by MTT colorimetric assay. Cells were incubated for 2 h with MTT reagent (0.5 mg/mL). During this incubation time, dehydrogenases of living cells reduced MTT to insoluble purple formazan, which was then dissolved in DMSO. The absorbance at 570 nm and 655 nm of individual wells was measured using a microplate reader (BioRad 550). The percentage of viable cells was calculated as [(OD570 sample−OD655 sample)/(OD570 control−OD655 control)]×100%.
ARPE-19 cells were plated into 96-well plates (4×10^4 cells/well) and cultured for 24 h to reach confluence before lipophenol treatment. The cell cultures were treated with serum free medium containing lipophenols at different concentrations (0-80 μM) for 1 h. Then all-trans-retinal was added to a final concentration of 15 μM for 4 h, before rinsing with medium. Control cells were incubated with DMSO (0.2%)±all-trans-retinal. The cell viability was determined 16-20 h later using a MTT colorimetric assay. All samples are expressed as percentage of viability compared to non-treated and exposed to all-trans-retinal control cells. Non-treated and non-exposed to all-trans-retinal control cells are normalized at 100% survival.
The results on the measurement of anti-carbonyl stress activity will be discussed in % cell survival gain compared to cells stressed by trans-retinal (at 15 μM) and not treated with lipophenols. Any survival gain greater than +5% will be considered as a proven anti-carbonyl stress activity.

[2] = system: ARPE-19 cells; experiment: Protection of lipophenols against ROS production (DCFDA probe, H2O2); settings: H2O2 600 μM; for increase in ROS compared to non-stressed cells: from 20 μM lipophenol
Description: as §1
Reactive oxygen species (ROS) were measured in ARPE-19 cells with the probe DCFDA. The cell permeant reagent DCFDA is deacetylated by cellular esterases to […], which can be oxidized by ROS into the fluorophore 2′,7′-dichlorofluorescein (DCF). ARPE-19 cells were plated into black, opaque bottom 96-well plates (4×10^4 cells/well) and cultured for 24 h to reach confluence before drug treatment. The cell cultures were incubated with 2 μM of DCFDA for 45 min in DMEM/F12 medium without phenol red+1% FBS. The cells were rinsed and incubated with medium containing lipophenols at different concentrations (0-80 μM) for 1 h. Then H2O2 was added to a final concentration of 600 μM for 4 h, followed by the measurement of DCF production by fluorescence spectroscopy with excitation wavelength at 485 nm and emission wavelength at 535 nm. Control cells were incubated with DMSO (0.2%)±DCFDA±H2O2. All samples are expressed as percentage of ROS production compared to non-oxidized control cells (normalized at 100% of ROS production).
The lowest percentages of increase will therefore be representative of the most protective derivatives.

[3] = system: ARPE-19 cells; experiment: Protection of lipophenols against photoactivated A2E toxicity (MTT); settings: A2E 20 μM, blue light
Description: as §1, §2
ARPE-19 cells were plated into 96-well plates (4×10^4 cells/well) and cultured for 24 h to reach confluence before lipophenol treatment. The cell cultures were treated with serum free DMEM/F12 medium without phenol red containing lipophenols at different concentrations (0-80 μM) for 1 h. Then A2E was added to a final concentration of 20 μM for 6 h, before rinsing with medium. Control cells were incubated with DMSO (0.2%)+A2E. Cells were exposed to intense blue light (4600 LUX) for 30 min to induce phototoxicity of A2E and incubated at 37° C. The cell viability was determined 16-20 h later using a MTT colorimetric assay. All samples are expressed as percentage of viability compared to non-treated and exposed to A2E control cells. Non-treated and non-exposed to A2E control cells are normalized at 100% survival.
Photoactivation of A2E leads to its oxidation and can generate cytotoxic derivatives, in particular carbonyl derivatives responsible for carbonyl stress. Results on lipophenol protection against photoactivated A2E toxicity will be discussed in % cell survival gain compared to cells stressed by A2E and not treated by lipophenols. This additional evaluation was not performed for all synthesized lipophenolic derivatives but only a selection of them to discuss the results obtained.

[4] = system: ARPE-19 cells; experiment: Cytotoxicity of lipophenols on ARPE-19 cells (MTT); settings: 24 h; for toxicity (in words): concentrations up to 160 μM; for cell survival: compared to untreated cells (100%)
Description: as §2
(§3) ARPE-19 cells were plated into 96-well plates (4×10^4 cells/well) and cultured for 24 h to reach confluence before lipophenol treatment. […] Control cells were incubated with DMSO (0.2%). The viability of the cells was determined using a MTT colorimetric assay. All samples are expressed as percentage of viability compared to non-treated control cells (normalized at 100% survival).
(§4) Results on the measurement of lipophenol toxicity will be discussed in % cell survival at a given lipophenol concentration compared to untreated cells. […] Any concentration of lipophenol resulting in cell survival of less than 5% (zero survival) will be considered a highly toxic concentration.

[5] = Cytotoxicity of lipophenols on ARPE-19 cells (MTT); settings: human, ARPE-19 cells (retinal pigment epithelium), tested 0-160 μM, read-out: CC50 (cytotoxic concentration 50)
Description: as §2, §3, §4

## CCCCC/C=C\C/C=C\CCCCCCCC(=O)O[C@H]1Cc2c(OC(C)C)cc(O)cc2O[C@@H]1c1ccc(O)c(O)c1 [C-3LA-5OiP, (9Z,12Z)-(2R,3S)-2-(3,4-dihydroxyphenyl)-7-hydroxy-5-isopropoxy-chroman-3-yl octadeca-9,12-dienoate]
[1]; 80 μM lipophenol
  cell survival gain (anti-carbonyl stress activity): +9%
[2]; 80 μM lipophenol
  gain of % of ROS production compared to non-stressed cells: +67%
[3]; concentration not given
  cell survival gain against photoactivated A2E: +30%

## CCCCC/C=C\C/C=C\CCCCCCCC(=O)O[C@H]1Cc2c(O)cc(OC(C)C)cc2O[C@@H]1c1ccc(O)c(O)c1 [C-3LA-7OiP, (9Z,12Z)-(2R,3S)-2-(3,4-dihydroxyphenyl)-5-hydroxy-7-isopropoxy-chroman-3-yl octadeca-9,12-dienoate]
[4]
  concentration from which cell survival is zero (highly toxic concentration): 80 µM
[1]; 40 μM lipophenol
  cell survival gain (anti-carbonyl stress activity): +27%
[2]; 80 μM lipophenol
  gain of % of ROS production compared to non-stressed cells: +37%

## CC(C)Oc1cc(O)cc2c1C[C@H](O)[C@@H](c1ccc(O)c(O)c1)O2 [C-50iP, reference compound]
[4]
  toxicity (in words): no toxicity
[1]
  anti-carbonyl stress activity (in words): no anti-carbonyl stress activity
[2]
  increase in ROS compared to non-stressed cells: 0%

## CC(C)Oc1cc(O)c2c(c1)O[C@H](c1ccc(O)c(O)c1)[C@@H](O)C2 [C-70iP, reference compound]
[4]
  toxicity (in words): no toxicity
[1]
  anti-carbonyl stress activity (in words): no anti-carbonyl stress activity
[2]
  increase in ROS compared to non-stressed cells: 0%

## CC/C=C\C/C=C\C/C=C\CCCCCCCC(=O)Oc1c(-c2ccc(O)c(O)c2)oc2cc(O)cc(OC(C)C)c2c1=O [Q-3ALA-5OiP, (9Z,12Z,15Z)-7-hydroxy-2-(3,4-dihydroxyphenyl)-5-isopropoxy-4-oxo-4H-chromen-3-yl octadeca-9,12,15-trienoate]
[4]
  concentration from which cytotoxicity is induced: 60 µM
[1]; 40 μM lipophenol
  cell survival gain (anti-carbonyl stress activity): +24%

## CC/C=C\C/C=C\C/C=C\CCCCCCCC(=O)Oc1c(-c2ccc(O)c(O)c2)oc2cc(OC(C)C)cc(O)c2c1=O [Q-3ALA-7OiP, (9Z,12Z,15Z)-5-hydroxy-2-(3,4-dihydroxyphenyl)-7-isopropoxy-4-oxo-4H-chromen-3-yl octadeca-9,12,15-trienoate]
[4]
  toxicity (in words): no toxicity
[1]; 80 μM lipophenol
  cell survival gain (anti-carbonyl stress activity): +29%
[3]; 80 μM lipophenol, compared to stressed untreated cells
  cell survival gain against photoactivated A2E: +77%

## CC/C=C\C/C=C\C/C=C\C/C=C\C/C=C\C/C=C\CCC(=O)Oc1c(-c2ccc(O)c(O)c2)oc2cc(O)cc(O)c2c1=O [Q-3DHA, (4Z,7Z,10Z,13Z,16Z,19Z)-2-(3,4-dihydroxyphenyl)-5,7-dihydroxy-4-oxo-4H-chromen-3-yl docosa-4,7,10,13,16,19-hexaenoate]
[5]
  CC50 at 24 h: < 160 µM
[1]; 60 μM lipophenol
  cell survival gain, maximum protection: +21%

## CC/C=C\C/C=C\C/C=C\C/C=C\C/C=C\C/C=C\CCC(=O)Oc1c(-c2ccc(O)c(O)c2)oc2cc(O)cc(OC(C)C)c2c1=O [Q-3DHA-5OiP, (4Z,7Z,10Z,13Z,16Z,19Z)-7-hydroxy-2-(3,4-dihydroxyphenyl)-5-isopropoxy-4-oxo-4H-chromen-3-yl docosa-4,7,10,13,16,19-hexaenoate]
[5]
  CC50 at 24 h: > 40 µM
[4]
  concentration from which cytotoxicity is induced: 60 µM
[1]; 40 μM lipophenol
  cell survival gain (anti-carbonyl stress activity): +27%

## CC/C=C\C/C=C\C/C=C\C/C=C\C/C=C\C/C=C\CCC(=O)Oc1c(-c2ccc(O)c(O)c2)oc2cc(OC(C)C)cc(O)c2c1=O [Q-3DHA-7OiP, (4Z,7Z,10Z,13Z,16Z,19Z)-5-hydroxy-2-(3,4-dihydroxyphenyl)-7-isopropoxy-4-oxo-4H-chromen-3-yl docosa-4,7,10,13,16,19-hexaenoate]
[4]
  toxicity (in words): no toxicity
[1]; 80 μM lipophenol
  cell survival gain (anti-carbonyl stress activity): +29%
[3]; as early as 20 μM lipophenol (plateau)
  cell survival gain against photoactivated A2E: +62%

## CCCCC/C=C\C/C=C\CCCCCCCC(=O)Oc1c(-c2ccc(O)c(O)c2)oc2cc(O)cc(O)c2c1=O [Q-3LA, (9Z,12Z)-2-(3,4-dihydroxyphenyl)-5,7-dihydroxy-4-oxo-4H-chromen-3-yl octadeca-9,12-dienoate]
[4]; 80 μM lipophenol
  cell survival: 156%
[4]; 160 μM lipophenol
  cell survival: 124%
[1]; 20 μM lipophenol
  cell survival gain, maximum protection: +9%
[3]; from 60 μM lipophenol
  cell survival gain against photoactivated A2E: +48%

## CCCCC/C=C\C/C=C\CCCCCCCC(=O)Oc1c(-c2ccc(O)c(O)c2)oc2cc(O)cc(OC(C)C)c2c1=O [Q-3LA-5OiP, (9Z,12Z)-7-hydroxy-2-(3,4-dihydroxyphenyl)-5-isopropoxy-4-oxo-4H-chromen-3-yl octadeca-9,12-dienoate]
[5]
  CC50 at 24 h: < 80 µM
[1]; 40 μM lipophenol
  cell survival gain (anti-carbonyl stress activity): +34%
[1]; 80 μM lipophenol
  cell survival gain (anti-carbonyl stress activity): +49%

## CCCCC/C=C\C/C=C\CCCCCCCC(=O)Oc1c(-c2ccc(O)c(O)c2)oc2cc(OC(C)C)cc(O)c2c1=O [Q-3LA-7OiP, (9Z,12Z)-5-hydroxy-2-(3,4-dihydroxyphenyl)-7-isopropoxy-4-oxo-4H-chromen-3-yl octadeca-9,12-dienoate]
[4]; 160 μM lipophenol
  cell survival: 153%
[1]; 80 μM lipophenol
  cell survival gain (anti-carbonyl stress activity): +38%
[3]; from 40 μM lipophenol (plateau)
  cell survival gain against photoactivated A2E: +86%

## CC(C)Oc1cc(O)cc2oc(-c3ccc(O)c(O)c3)c(O)c(=O)c12 [Q-50iP, reference compound]
[4]; 160 μM lipophenol
  cell survival: 72%
[4]
  toxicity (in words): almost no toxicity
[1]
  anti-carbonyl stress activity (in words): did not show anti-carbonyl stress potency
[2]; 80 μM lipophenol
  gain of % of ROS production compared to non-stressed cells: +46%

## CC(C)Oc1cc(O)c2c(=O)c(O)c(-c3ccc(O)c(O)c3)oc2c1 [Q-70iP, reference compound]
[4]
  concentration from which cell survival is zero (highly toxic concentration): 40 µM
  toxicity (in words): very important cytotoxicity even at low concentration
[1]
  anti-carbonyl stress activity (in words): did not show anti-carbonyl stress potency
[2]; 20 μM lipophenol
  gain of % of ROS production compared to non-stressed cells: +31%

## Oc1cc(O)cc(O)c1 [phloroglucinol, reference compound]
[4]; 160 μM lipophenol
  cell survival: 61%
[1]
  anti-carbonyl stress activity (in words): no survival gain
[2]; 80 μM lipophenol
  gain of % of ROS production compared to non-stressed cells: +50%
[3]; up to 80 μM lipophenol
  protection against photoactivated A2E (in words): no cell protection

## (+)-catechin [reference compound]
[1]
  anti-carbonyl stress activity (in words): no anti-carbonyl stress activity
[2]
  increase in ROS compared to non-stressed cells: 0%
